Data published in patent publication US20250134853A1, “COMPOUNDS AND METHODS FOR USING GALLOYLATED POLYPHENOLS TO TREAT DISEASES MEDIATED BY THIOL ISOMERASES” (Beth Israel Deaconess Medical Center, Inc., priority 2023, published 2025).

Key:
[1] = target: T1, PDI (Homo sapiens, UniProt P07237); experiment: Jump dilution reversibility, di-eosin-GSSG assay; type: biochemical; conditions: 50 μM, 30 min, then 100-fold dilution
T1 construct: FLAG; made in house; host or cells: Escherichia coli Origami B (DE3)
T1 sequence (P07237 18-508): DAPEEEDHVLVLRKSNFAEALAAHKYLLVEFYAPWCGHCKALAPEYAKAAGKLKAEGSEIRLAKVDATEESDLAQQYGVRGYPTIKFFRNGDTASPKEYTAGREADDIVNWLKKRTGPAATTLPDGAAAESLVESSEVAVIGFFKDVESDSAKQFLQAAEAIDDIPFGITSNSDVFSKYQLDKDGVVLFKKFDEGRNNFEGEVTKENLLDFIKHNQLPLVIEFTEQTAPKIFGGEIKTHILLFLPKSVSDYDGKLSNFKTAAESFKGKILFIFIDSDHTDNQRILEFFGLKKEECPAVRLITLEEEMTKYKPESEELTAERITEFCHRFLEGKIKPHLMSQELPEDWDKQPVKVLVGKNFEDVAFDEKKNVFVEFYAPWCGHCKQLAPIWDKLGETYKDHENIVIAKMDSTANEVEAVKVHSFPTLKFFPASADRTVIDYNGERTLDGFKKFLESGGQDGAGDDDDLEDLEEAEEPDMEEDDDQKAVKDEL
Procedure: FIGS. 6A and 6B are plots showing % PDI activity. […] To test reversibility, the samples containing 50 μM compounds were then diluted 1:100. PDI activity was evaluated using a di-eosin-GSSG reductase assay. Data represented as mean SEM.
After 30 minutes of equilibration, the PDI-inhibitor mixture was diluted 100-fold with thiol isomerase assay buffer where the final concentration of enzyme is 0.2 μM and compounds at 500 nM or 50 μM. Di-eosin-GSSG was added to a final concentration of 300 nM and the assay was immediately recorded for 1 h.

[2] = target: T1, PDI; experiment: SDS-PAGE molecular weight shift (alkylation of PDI free thiols); type: biochemical
From the text: FIG. 5 is an image of gel showing detection of PDI free thiol by the labeling of acetamido maleimidylstilbene disulfonic acid (AMS), which shifts the protein to a higher apparent molecular weight.
4-acetomido-4′-maleimidylstilbene-2,2′ disulfonic acid (AMS), which shifts the mass of the protein by 500 Da for every cysteine alkylated, was used as a positive control. […] N-ethylmaleimide (NEM) was used for a control experiment because covalent alkylation of the free thiols will expectedly prevent PDI activity (FIG. 6A).

[3] = target: T1, PDI; experiment: Maleimide-pegylated biotin (MPB) binding to PDI; conditions: preincubation with compound
Procedure: PDI was then exposed to MPB in Laemmli Sample buffer for 10 minutes. Samples were subsequently analyzed for MPB labeling with […] after SDS-PAGE and immunoblotting.
Maleimide-pegylated Biotin (MPB) binding. MPB-binding experiments were performed in a reaction volume of 37.5 μL of polyphenols with 5 μM of thiol isomerase in phosphate buffered saline (PBS). The reaction mixture was incubated at 37° C. for 1 h. Subsequently, the reaction mixtures were incubated with 25 μM of MPB. The labelling was performed for 20 min at 25° C. A total of 12.5 μL of 4× Laemmli Sample Buffer with 10% v/v β-mercaptoethanol was added to each of the samples, followed by heating at 95° C. for 10 min. From each sample, 10 μL was loaded on a 4-15% SDS-PAGE TGX gel, followed by transfer on a nitrocellulose membrane. After blocking the membrane with tris-buffered saline containing 0.1% v/v Tween-20 (TBS-T) containing 5% BSA for 1 h, the membrane was incubated with a 1:2,000 dilution of streptavidin-HRP in TBS-T for an hour in the dark. Detection of the immunoblots was performed using a BioRad ChemiDoc MP imager.

[4] = system: thrombus formation following laser injury of cremaster arterioles; experiment: Laser-injury thrombosis model; type: in vivo, mice
Procedure: Laser-injury thrombosis model. Thrombus formation in response to laser injury was measured as described previously. See Grover S P, et al. J. Thromb. Haemost. 18:3078-85, 2020; Koseoglu S, et al. Arterioscler. Thromb. Vasc. Biol. 33:481-8, 2013; and Matsuura S, et al. Arterioscler. Thromb. Vasc. Biol. 40:e262-e72, 2020. Briefly, cremaster muscle arterioles were injured using a MicroPoint Laser System (Andor, Belfast, UK). Platelet and fibrin accumulation were measured by infusion of Dylight 649-labeled anti-platelet (CD42b; 0.1 μg/g body weight; Emfret Analytics) and DyLight 488-labeled anti-fibrin (clone 59D8; 0.3 μg/g) antibodies through a jugular vein catheter. Data were acquired before and after laser injury using the brightfield, 488/520 nm, and 640/670 nm channels. Images were captured for 250 seconds at 2 frames/s using a CCD camera (ORCA Flash 4.0, Hamamatsu Photonics, Japan) on an AX-70 fluorescence microscope (Olympus, Japan). Data were analyzed using Slidebook 6.0 (Intelligent Imaging Innovations). Data from 16 to 30 thrombi were used to determine the median value of the integrated fluorescence intensity to account for variability in thrombus formation under any given experimental condition. AUC was calculated for individual thrombi and normalized to injury lengths to evaluate statistical significance. Injury lengths were determined as previously described in Grover S P, et al. J. Thromb. Haemost. 18:3078-85, 2020.
The differences in platelet accumulation and fibrin formation were not secondary to differences in the extent of laser injury since injury size between control and PGHG-treated mice was indistinguishable (FIG. 10E).

[5] = target: T2, SARS-CoV-2 M^pro (Severe acute respiratory syndrome coronavirus 2, UniProt P0DTD1); conditions: cited from earlier work
[6] = target: T2, SARS-CoV-2 M^pro; experiment: SARS-CoV-2 M^pro proteolytic activity; type: biochemical
[7] = target: ERp46 (Homo sapiens, UniProt Q8NBS9); experiment: Di-eosin-GSSG disulfide reductase assay, ERp46; type: biochemical
Sequence of ERp46 (Q8NBS9 33-432, species assumed): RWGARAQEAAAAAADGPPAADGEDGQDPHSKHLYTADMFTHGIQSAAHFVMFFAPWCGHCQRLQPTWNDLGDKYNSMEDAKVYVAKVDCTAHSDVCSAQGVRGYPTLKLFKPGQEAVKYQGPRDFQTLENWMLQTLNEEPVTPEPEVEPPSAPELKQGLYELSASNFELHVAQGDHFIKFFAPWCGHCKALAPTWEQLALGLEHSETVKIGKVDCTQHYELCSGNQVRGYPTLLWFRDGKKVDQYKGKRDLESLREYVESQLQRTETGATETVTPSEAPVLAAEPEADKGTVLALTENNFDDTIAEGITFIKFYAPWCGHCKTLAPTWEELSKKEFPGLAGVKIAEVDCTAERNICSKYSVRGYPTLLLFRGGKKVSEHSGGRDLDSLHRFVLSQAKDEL
From the text: Di-eosin-GSSG disulfide reductase assay. […] Any fraction with a fold change >5 was kept.

[8] = system: PDI mutants in which His55 and His399 were replaced; conditions: 10 μM PGHG, 15 min
Procedure: Data represented as mean±SEM.
Di-eosin-GSSG disulfide reductase assay. […] Di-eosin-GSSG cleavage of purified thiol isomerases and PDI domains was monitored in a 96-well fluorescence plate format. PDI, CGXC-PDI variants, ERp5, ERp57, ERp46 and PDI domains were assayed at 50 nM in the presence or absence of the indicated small molecules. The assay included a thiol isomerase assay buffer (39 mM KH2PO4, 61 mM K2HPO4, 2 mM EDTA, 5 M DTT, pH 7.4) and 150 nM of the di-eosin-GSSG probe. The increase in fluorescence was determined for 60 min by excitation at 520 nm and emission at 550 nm in a Synergy Biotek 4. The reduction of 150 nM di-eosin-GSSG by 5 μM DTT in the presence or absence of mentioned small molecule or proteins served as a negative control.

[9] = 25 μg/g PGHG, intraperitoneal injection
[10] = PGHG 25 mg/kg (Example 1, FIG. 1)
[11] = intravenous infusion, 25 μg/g PGHG

For O=C(O[C@@H]1[C@@H](O)[C@H](Oc2cc(O)c3c(c2)O[C@H](c2ccccc2)CC3=O)O[C@@H]2COC(=O)c3cc(O)c(O)c(O)c3-c3c(cc(O)c(O)c3O)C(=O)O[C@@H]12)c1cc(O)c(O)c(O)c1 [PGHG, pinocembrin 7-O-(3″-galloyl-4″,6″-(S)-hexahydroxydiphenoyl)-beta-D-glucose], the “reversibility of PDI inhibition” value [1] was “inhibitory activity was lost following a 100-fold dilution”, the “shift in molecular weight of PDI in SDS polyacrylamide gel” value [2] was “did not induce a shift in molecular weight” and the “effect on MPB binding to PDI” value [3] was “no significant effect on MPB binding”. The mean fibrin fluorescence [4, 9] was 33.44±7.53 % of control, the mean platelet accumulation [4, 9] was 29.56±9.08 % of control and the fibrin formation [4, 10] was 21±3 % of controls. The platelet accumulation [4, 10] was 18±6 % of control levels, the “fibrin formation, fluorescence compared to controls” value [4, 11] was 21±3.7% and the “platelet accumulation, fluorescence compared to controls” value [4, 11] was 18±6.2%. For the same compound, the “Modeling shows gallic acid interaction with His41 or Glu166” value [5] was “His41; Glu166”, the IC50 [6] was 6.5 µM and the IC50 [7] was 3.9 µM. The “susceptibility of His55/His399 PDI mutants (Ala, Asp, Arg)” value [8] was “mutants were resistance to PGHG”.
